From publication PMC9412861, “Understanding the pH Dependence of Supersaturation State—A Case Study of Telmisartan” (Pharmaceutics, 2022)
Where two headings read alike, the source gives them in different places.

Legend:
[1] = ESI mass spectrometry of saturated solutions (aggregation); type: physicochemical; details: buffer-free saturated solution
Description: An ESI- triple quadrupole-MS/MS instrument (4000 Q TRAP) from Applied Biosystems (Foster City, CA, USA) was used for the MS and MS/MS measurements. Compounds were analyzed in the positive mode, and the settings were ion spray voltage 4500 V, ion source gas (N2) 16 arbitrary units (a.u.), curtain gas (N2) 10 a.u., declustering potential 20 V, and entrance potential 10 V. For MS/MS experiments, the settings were collision gas (N2) medium, and collision energy 51 V. Saturated samples were infused at a rate of 6 μL/min using Harvard Apparatus Syringe pump (Holliston, MA, USA). Analyst 1.4.2. software from Applied Biosystems (Foster City, CA, USA) was used for data acquisition and processing.

[2] = UV/pH titration in aqueous medium (pKa determination); type: physicochemical; details: for pKa: aqueous 0.15 M KCl solution, UV/pH titration in aqueous medium, I = 0.15 M KCl; for predominant protonated macrospecies: calculated from pKa values at 37 °C
Description: The pKa values of telmisartan were determined by UV-pH titration using the D-PAS™ ultra-violet spectrophotometer attached to a GLpKa instrument (Sirius Analytical Instruments Ltd., Forest Row, UK). First, a stock solution of TEL was prepared in methanol (2 mg/mL). […] Spectra were registered in the 200–700 nm region. The pKa values were calculated by RefinementPro^TM software (Sirius Analytical Instruments Ltd., Forest Row, UK).

[3] = 1H NMR/pH titration (pKa determination); type: physicochemical; details: 5 v/v % D2O-95 v/v % H2O, NMR-pH titration, 25 °C, I = 0.15 M
Description: All NMR measurements were performed on a Varian 600 MHz spectrometer (Varian Inc., Palo Alto, CA, USA) with a dual 5 mm inverse-detection gradient probehead at 25 °C, constant ionic strength (I = 0.15 M) and using 5 v/v % D2O–95 v/v % H2O as solvent. The spectra were referenced to internal DSS (sodium 3-(trimethylsilyl)-1-propanesulfonate) as chemical shift reference. The pH of the samples (600 μL)were adjusted with concentrated HCl and NaOH and determined by in situ internal indicator molecules optimized for NMR [39, 40]. The concentration of telmisartan was below 1 mM during in the titration solution, due to its poor solubility, but all the peaks were still clearly visible. The water resonance was diminished by a double pulse field gradient spin echo sequence (number of transients = 16, number of points = 16,384, acquisition time = 3.33 s, relaxation delay = 1.5 s).
In order to obtain the acid dissociation constants from the chemical shifts–pH profiles, the software Origin Pro 8 (OriginLab Corp., Northampton, MA, USA) was used to perform non-linear regression with the following function:(2) δobs(pH)=δX^−+∑i=1nδHiX^i−1×10^logβi−i×pH/1+∑i=1n10^logβi−i×pH where δX^- is the chemical shift of the unprotonated ligand (X^−), δHiX^i-1 values stand for the chemical shifts of successively protonated species of X^−, n is the maximum number of protons that can bind to the unprotonated ligand, β is the cumulative macroconstant. The standard deviations of logβ values from the regression analyses were used to calculate the Gaussian propagation of uncertainty for the other equilibrium constants.

[4] = XRD characterization of solid phase isolated from solubility suspension; type: physicochemical; details: solid phase from solubility measurement, Prisma HT buffer
Description: X-ray powder diffraction (XRD) measurements were performed by X’pert Pro MPD X-ray diffractometer (PANalytical B.v., Armelo, The Netherlands).

[5] = UV/pH titration in MeOH-water mixtures with Yasuda–Shedlovsky extrapolation; type: physicochemical; details: methanol-water mixtures, UV/pH titration in MeOH-water mixture, 25 °C, aqueous value by Yasuda–Shedlovsky extrapolation
Description: The cosolvent dissociation constants (psKa values) were determined in various MeOH-water mixtures between 8–34% (w/w) under the same experimental conditions as in aqueous medium. The aqueous pKa values were calculated from the measured psKa values in methanol-water solutions using the Yasuda–Shedlovsky extrapolation method. The Yasuda–Shedlovsky procedure is based on the linear relation between psKa and the dielectric constant (ε) of the cosolvent mixture:(1) psKa+log[H2O]=a/ε+b where ε is the dielectric constant, and log[H2O] is the molar water concentration of the given methanol-water mixture.

[6] = Thermodynamic (equilibrium) solubility, saturation shake-flask, in Prisma HT buffer; type: physicochemical; details: thermodynamic from solid
Description: The methods for thermodynamic solubility measurements can be found in Baka et al. (measured amount of TEL: 1 mg/mL, 37 °C, 6 h strirring, 18 h sedimentation). During the thermodynamic solubility measurements in Prisma buffers the concentration of the API was determined without filtering the solutions by the Rainbow Dynamic Dissolution Monitor instrument (Pion Inc., Billerica, MA, USA). In the case of solubility measurements in distilled water, the concentration of the API after filtration with PVDF membrane (0.22 µm) was determined by Jasco V-550 UV–vis spectrophotometer (Jasco Inc., Easton, MD, USA).

[7] = between pH 3–8; cited from earlier work
[8] = read-out: pKa1 ± SD (Carboxyl Group)
[9] = read-out: pKa2 ± SD (Middle Benzimidazole Ring)
[10] = read-out: pKa3 ± SD (Terminal Benzimidazole Ring)

dimerization in solution by MS ([1]; higher pHs (e.g., pH 10)): no dimerization could be observed | pKa ([2]; 25 °C, read-out: pKa1 ± SD (Carboxyl Group)): 3.03 ± 0.04 | pKa ([2]; 25 °C, read-out: pKa2 ± SD (Middle Benzimidazole Ring)): 4.22 ± 0.09 | pKa ([2]; 25 °C, read-out: pKa3 ± SD (Terminal Benzimidazole Ring)): 6.08 ± 0.07 | pKa ([2]; 37 °C, read-out: pKa1 ± SD (Carboxyl Group)): 3.04 ± 0.03 | pKa ([2]; 37 °C, read-out: pKa2 ± SD (Middle Benzimidazole Ring)): 4.08 ± 0.02 | pKa ([2]; 37 °C, read-out: pKa3 ± SD (Terminal Benzimidazole Ring)): 5.91 ± 0.05 | predominant protonated macrospecies ([2]; gastric pH (pH 1–2)): dication (XH3^2+) | predominant protonated macrospecies ([2]; pH of plasma (pH 7.4)): anionic (X^−) | pKa [3, 8]: 3.21 ± 0.14 | pKa [3, 9]: 4.28 ± 0.07 | pKa [3, 10]: 6.08 ± 0.04 | XRD Characterization ([4]; pH 1.60): Crystalline | XRD Characterization ([4]; pH 2.15): Crystalline | XRD Characterization ([4]; pH 2.50): Crystalline | XRD Characterization ([4]; pH 3.08): Crystalline | XRD Characterization ([4]; pH 3.82): Crystalline | XRD Characterization ([4]; pH 6.50): Crystalline | XRD Characterization ([4]; pH 7.88): Crystalline | XRD Characterization ([4]; pH 9.40): amorphous background | XRD Characterization ([4]; pH 9.79): amorphous background | XRD Characterization ([4]; pH 11.74): Amorphous | pKa [5, 8]: 3.03 ± 0.06 | pKa [5, 9]: 4.19 ± 0.07 | pKa [5, 10]: 6.14 ± 0.1 | solubility thermodynamic at 6 h ([6]; aqueous buffer, pH 2.15, 37 °C, read-out: Equilibrium solubility S ± SD): 0.119 ± 0.0118 mg/mL | solubility thermodynamic at 6 h ([6]; aqueous buffer, pH 2.15, 37 °C, read-out: Equilibrium solubility logS ± SD (converted)): 229 µM | solubility thermodynamic at 6 h ([6]; aqueous buffer, pH 3.08, 37 °C, read-out: Equilibrium solubility S ± SD): 0.0131 ± 0.00173 mg/mL | solubility thermodynamic at 6 h ([6]; aqueous buffer, pH 3.08, 37 °C, read-out: Equilibrium solubility logS ± SD (converted)): 25.1 µM | solubility thermodynamic at 6 h ([6]; aqueous buffer, pH 3.82, 37 °C, read-out: Equilibrium solubility S ± SD): 0.00362 ± 0.00059 mg/mL | solubility thermodynamic at 6 h ([6]; aqueous buffer, pH 3.82, 37 °C, read-out: Equilibrium solubility logS ± SD (converted)): 7.08 µM | solubility thermodynamic at 6 h ([6]; aqueous buffer, pH 7.88, 37 °C, read-out: Equilibrium solubility S ± SD): 0.0115 ± 0.00026 mg/mL | solubility thermodynamic at 6 h ([6]; aqueous buffer, pH 7.88, 37 °C, read-out: Equilibrium solubility logS ± SD (converted)): 22.4 µM | solubility thermodynamic at 6 h ([6]; aqueous buffer, pH 9.00, 37 °C, read-out: Equilibrium solubility S ± SD): 0.13 ± 0.00273 mg/mL | solubility thermodynamic at 6 h ([6]; aqueous buffer, pH 9.00, 37 °C, read-out: Equilibrium solubility logS ± SD (converted)): 251 µM | solubility thermodynamic at 6 h ([6]; aqueous buffer, pH 9.79, 37 °C, read-out: Equilibrium solubility S ± SD): 1.47 ± 0.255 mg/mL | solubility thermodynamic at 6 h ([6]; aqueous buffer, pH 9.79, 37 °C, read-out: Equilibrium solubility logS ± SD (converted)): 2880 µM | solubility thermodynamic at 6 h ([6]; aqueous buffer, pH 11.74, 37 °C, read-out: Equilibrium solubility S ± SD): 2.25 ± 0.145 mg/mL | solubility thermodynamic at 6 h ([6]; aqueous buffer, pH 11.74, 37 °C, read-out: Equilibrium solubility logS ± SD (converted)): 4370 µM | solubility thermodynamic at 6 h ([6]; pH 1.6, aqueous buffer, pH 1.60, 37 °C, read-out: Equilibrium solubility S ± SD): 0.15 ± 0.038 mg/mL | solubility thermodynamic at 6 h ([6]; pH 1.6, aqueous buffer, pH 1.60, 37 °C, read-out: Equilibrium solubility logS ± SD (converted)): 288 µM | solubility thermodynamic at 6 h ([6]; pH 2.5, aqueous buffer, pH 2.50, 37 °C, read-out: Equilibrium solubility S ± SD): 0.017 ± 0.00072 mg/mL | solubility thermodynamic at 6 h ([6]; pH 2.5, aqueous buffer, pH 2.50, 37 °C, read-out: Equilibrium solubility logS ± SD (converted)): 47.9 µM | solubility thermodynamic at 6 h ([6]; pH 6.5, aqueous buffer, pH 6.50, 37 °C, read-out: Equilibrium solubility S ± SD): 0.00079 ± 0.00016 mg/mL | solubility thermodynamic at 6 h ([6]; pH 6.5, aqueous buffer, pH 6.50, 37 °C, read-out: Equilibrium solubility logS ± SD (converted)): 1.58 µM | solubility thermodynamic at 6 h ([6]; pH 9.4, aqueous buffer, pH 9.40, 37 °C, read-out: Equilibrium solubility S ± SD): 0.275 ± 0.0094 mg/mL | solubility thermodynamic at 6 h ([6]; pH 9.4, aqueous buffer, pH 9.40, 37 °C, read-out: Equilibrium solubility logS ± SD (converted)): 537 µM
SMILES: CCCc1nc2c(C)cc(-c3nc4ccccc4n3C)cc2n1Cc1ccc(-c2ccccc2C(=O)O)cc1 [Telmisartan, telmisartan]
dimerization in solution by MS ([1]; pH range 3–8): peak corresponding to the dimeric structure could be detected | predominant protonated macrospecies ([2]; intestinal pH (pH 5–6.5)): monoprotonated (XH) and the unprotonated anionic (X^−) | solubility [7]: low solubility
